Data reported in ChEMBL document CHEMBL1201862, “PubChem BioAssay data set” (2004).
Where a name gives a salt, the structure may show the parent alone.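 48-hour exposure; five concentrations; linearly interpolated endpoints. At the GI50, growth is halved.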 Calls of active or inactive are those of the source. Cut-off read from the data, not from the text of the source: active = GI50 up to about 1.1 µM and inactive = higher.

Experiments:
Assay in all cases: NCI anticancer screen, dose series, 48 h
LOX IMVI = tested on: LOX IMVI
SK-MEL-2 = tested on: SK-MEL-2
HT-29 = tested on: HT-29
Hs-578T = tested on: Hs-578T
HCC 2998 = tested on: HCC 2998
CAKI-1 = tested on: CAKI-1
RPMI-8226 = tested on: RPMI-8226
OVCAR-3 = tested on: OVCAR-3
A549 = tested on: A549
786-0 = tested on: 786-0
UO-31 = tested on: UO-31
UACC-62 = tested on: UACC-62
NCI-H522 = tested on: NCI-H522
T47D = tested on: T47D
PC-3 = tested on: PC-3
HOP-62 = tested on: HOP-62
SW-620 = tested on: SW-620
TK-10 = tested on: TK-10
SNB-19 = tested on: SNB-19
Malme-3M = tested on: Malme-3M

Structure (SMILES)	GI50 (LOX IMVI)	GI50 (SK-MEL-2)	GI50 (HT-29)	GI50 (Hs-578T)	GI50 (HCC 2998)	GI50 (CAKI-1)	GI50 (RPMI-8226)	GI50 (OVCAR-3)	GI50 (A549)	GI50 (786-0)	GI50 (UO-31)	GI50 (UACC-62)	GI50 (NCI-H522)	GI50 (T47D)	GI50 (PC-3)	GI50 (HOP-62)	GI50 (SW-620)	GI50 (TK-10)	GI50 (SNB-19)	GI50 (Malme-3M)
O=C1c2ccccc2C(=O)c2c1nc1ccccc1c2-c1cncc(-c2c3c(nc4ccccc24)C(=O)c2ccccc2C3=O)c1	1.67 µM (inactive)	8.45 µM (inactive)	8.49 µM (inactive)	3.69 µM (inactive)	18.5 µM (inactive)	9.84 µM (inactive)	0.361 µM (active)	5.7 µM (inactive)	3.29 µM (inactive)	9.82 µM (inactive)	1.55 µM (inactive)	5.65 µM (inactive)	1.95 µM (inactive)	2.33 µM (inactive)	2.15 µM (inactive)	6.56 µM (inactive)	6.15 µM (inactive)	37.3 µM (inactive)	23.8 µM (inactive)	11.9 µM (inactive)
CC1OC(OC2C(OC(=O)[C@]34CCC(C)(C)C[C@H]3C3=CC[C@@H]5[C@@]6(C)CC[C@H](OC7OC(C(=O)O)C(O)C(O)C7O)C(C)(C)[C@@H]6CC[C@@]5(C)[C@]3(C)C[C@H]4O)OCC(O)C2O)C(O)C(OC2OCC(O)(CO)C2O)C1OC1OCC(O)C(O)C1O (some centres undefined)	13.7 µM (inactive)	6.7 µM (inactive)	3.53 µM (inactive)	20.3 µM (inactive)	1.81 µM (inactive)	6.62 µM (inactive)	7.23 µM (inactive)	14 µM (inactive)	3.9 µM (inactive)	12.1 µM (inactive)	2.92 µM (inactive)	16 µM (inactive)	4.08 µM (inactive)	8.47 µM (inactive)	8.55 µM (inactive)	16.1 µM (inactive)	10.9 µM (inactive)		11 µM (inactive)	11.6 µM (inactive)
c1ccc([P+](Cc2ccc(C[P+](c3ccccc3)(c3ccccc3)c3ccccc3)cc2)(c2ccccc2)c2ccccc2)cc1	14.6 µM (inactive)		25 µM (inactive)	32.4 µM (inactive)	91 µM (inactive)	> 100 µM (inactive)	43 µM (inactive)	27.7 µM (inactive)	45.7 µM (inactive)	47.5 µM (inactive)	18.4 µM (inactive)	44.2 µM (inactive)	62.2 µM (inactive)	> 100 µM (inactive)	40.9 µM (inactive)	69.5 µM (inactive)	72.4 µM (inactive)	81.7 µM (inactive)	26.4 µM (inactive)	52.7 µM (inactive)
C=CC(C1=CC(=O)C(OC)=CC1=O)c1ccccc1 (centres undefined) [4-METHOXYDALBERGIONE]	16.2 µM (inactive)	12.6 µM (inactive)	19.3 µM (inactive)	17.8 µM (inactive)	16.7 µM (inactive)	17.2 µM (inactive)	9.64 µM (inactive)	17.2 µM (inactive)	25.4 µM (inactive)	14.1 µM (inactive)	15.9 µM (inactive)	14.6 µM (inactive)	6.93 µM (inactive)	2.65 µM (inactive)	9.53 µM (inactive)	16.6 µM (inactive)	19.5 µM (inactive)	18.1 µM (inactive)	15.8 µM (inactive)	14.5 µM (inactive)
CCOC(=O)c1c(C)[nH]c2c1c(CN(C)C)c(O)c1nc(C)c(C)nc12	19.4 µM (inactive)	20.4 µM (inactive)	21.6 µM (inactive)	22.8 µM (inactive)	21.4 µM (inactive)	28.4 µM (inactive)	18.5 µM (inactive)	26.5 µM (inactive)	22.4 µM (inactive)	16.1 µM (inactive)	29.5 µM (inactive)	15.6 µM (inactive)	16.3 µM (inactive)	27 µM (inactive)	19.5 µM (inactive)	20 µM (inactive)	24.4 µM (inactive)	24.2 µM (inactive)	31.1 µM (inactive)	18.5 µM (inactive)
COc1cc(C2SCC(=O)N2c2ccc(-n3c(-c4ccccc4)nc4ccccc4c3=O)cc2)ccc1O (centres undefined)	54.6 µM (inactive)	> 100 µM (inactive)	> 100 µM (inactive)	22.3 µM (inactive)	58.3 µM (inactive)	> 100 µM (inactive)	76.4 µM (inactive)	> 100 µM (inactive)	74.8 µM (inactive)	> 100 µM (inactive)	11.8 µM (inactive)	26.1 µM (inactive)	33 µM (inactive)	30 µM (inactive)	> 100 µM (inactive)	> 100 µM (inactive)	> 100 µM (inactive)	> 100 µM (inactive)	> 100 µM (inactive)	54.7 µM (inactive)
O=C(O)CC(C(=O)O)c1ccccc1[N+](=O)[O-] (centres undefined)	> 100 µM (inactive)	> 100 µM (inactive)	> 100 µM (inactive)	25.6 µM (inactive)	> 100 µM (inactive)	> 100 µM (inactive)	> 100 µM (inactive)	> 100 µM (inactive)	> 100 µM (inactive)	> 100 µM (inactive)	2.62 µM (inactive)	> 100 µM (inactive)	> 100 µM (inactive)	> 100 µM (inactive)	> 100 µM (inactive)	> 100 µM (inactive)	> 100 µM (inactive)	> 100 µM (inactive)	> 100 µM (inactive)	> 100 µM (inactive)
N=C1C=C(N)C(=O)c2[nH]c(=O)ccc21	2 µM (inactive)	2.36 µM (inactive)	2.37 µM (inactive)	4.42 µM (inactive)	19.3 µM (inactive)	5.16 µM (inactive)	2.15 µM (inactive)	1.54 µM (inactive)	2.48 µM (inactive)	1.91 µM (inactive)		2.3 µM (inactive)	1.56 µM (inactive)	1.76 µM (inactive)	1.36 µM (inactive)	1.92 µM (inactive)	2.88 µM (inactive)	12.4 µM (inactive)	2.02 µM (inactive)	2.39 µM (inactive)
CN[C@@H]1[C@H](O)[C@H](NC)[C@H]2O[C@@]3(O)C(=O)C[C@@H](C)O[C@H]3O[C@@H]2[C@H]1O [SPECTINOMYCIN SULFATE]	> 100 µM (inactive)		> 100 µM (inactive)	> 100 µM (inactive)	> 100 µM (inactive)	> 100 µM (inactive)	> 100 µM (inactive)	> 100 µM (inactive)		> 10 µM (inactive)	> 100 µM (inactive)	> 100 µM (inactive)	> 100 µM (inactive)	> 100 µM (inactive)	> 100 µM (inactive)	> 100 µM (inactive)	> 100 µM (inactive)		> 100 µM (inactive)	> 100 µM (inactive)
NNC(=S)N1CCN(C(=S)NN)CC1	58.1 µM (inactive)	> 100 µM (inactive)	> 100 µM (inactive)	> 100 µM (inactive)	> 100 µM (inactive)	> 100 µM (inactive)	> 100 µM (inactive)	> 100 µM (inactive)	> 100 µM (inactive)	> 100 µM (inactive)	> 100 µM (inactive)	> 100 µM (inactive)	> 100 µM (inactive)	> 100 µM (inactive)	> 100 µM (inactive)	> 100 µM (inactive)	> 100 µM (inactive)		> 100 µM (inactive)	> 100 µM (inactive)
c1ccc2nc(CCC3CCCCN3)ccc2c1 (centres undefined)	> 100 µM (inactive)	> 100 µM (inactive)	> 100 µM (inactive)	> 100 µM (inactive)	> 100 µM (inactive)	> 100 µM (inactive)	39.9 µM (inactive)		> 100 µM (inactive)	> 100 µM (inactive)	78.3 µM (inactive)	> 100 µM (inactive)	40.6 µM (inactive)	54.5 µM (inactive)	> 100 µM (inactive)	85.5 µM (inactive)	> 100 µM (inactive)	> 100 µM (inactive)	> 100 µM (inactive)	91.4 µM (inactive)
N=c1oc2ccc3ccccc3c2cc1-c1nc(O)c2ccccc2n1	38.5 µM (inactive)	14.4 µM (inactive)	13 µM (inactive)	20.5 µM (inactive)	29.6 µM (inactive)	43.5 µM (inactive)	42.6 µM (inactive)		20.7 µM (inactive)	24.3 µM (inactive)	3.23 µM (inactive)	12.8 µM (inactive)	3.27 µM (inactive)	30.7 µM (inactive)	13.4 µM (inactive)	15.8 µM (inactive)	36.8 µM (inactive)	21 µM (inactive)	27.6 µM (inactive)	23.4 µM (inactive)
CN1CCN(CCn2c3c4ccccc4ccc3c3oc(=O)c4ccccc4c32)CC1		13.5 µM (inactive)	1.36 µM (inactive)	4.79 µM (inactive)	1.87 µM (inactive)	4.97 µM (inactive)	2.61 µM (inactive)	10.6 µM (inactive)	3.97 µM (inactive)	1.73 µM (inactive)	2.19 µM (inactive)	3.56 µM (inactive)	4.55 µM (inactive)	> 10 µM (inactive)	2.03 µM (inactive)	2.07 µM (inactive)	1.86 µM (inactive)	10.5 µM (inactive)	4.51 µM (inactive)	15.1 µM (inactive)
COc1cc2c(cc1OC)C(=O)N(c1ccc(OCCN3CCCC3)cc1)C2=O	> 100 µM (inactive)	> 100 µM (inactive)	> 100 µM (inactive)	> 100 µM (inactive)	> 100 µM (inactive)	> 100 µM (inactive)	> 100 µM (inactive)	> 100 µM (inactive)	> 100 µM (inactive)	> 100 µM (inactive)		> 100 µM (inactive)	> 100 µM (inactive)	> 100 µM (inactive)	> 100 µM (inactive)	> 100 µM (inactive)	> 100 µM (inactive)	> 100 µM (inactive)	> 100 µM (inactive)	20.8 µM (inactive)
